Measurements reported in US20100173018A1, “Microbicidal Compositions Including Activated Nitrogenous Compound and 1,4-Bis(Bromoacetoxy)-2-Butene, and Methods Of Using The Same” (BUCKMAN LABORATORIES INTERNATIONAL, INC., priority 2009, published 2010).
“Also recorded” adds a separate entry of the source.

Experiments:
[1] = system: filamentous bacteria isolate from a paper mill slime deposit (Flectobacillus species); test: Synergy evaluation against filamentous bacteria (checkerboard, CFU on agar); format: cell-based
Method: Synergy evaluation against filamentous bacteria. The checkerboard method was used to determine the Fractional Inhibitory Index (FIC) as a predictor of synergy between Activated N-Compound and Busan 1210 (BBAB) against a pure isolate of filamentous bacteria cultured from a paper mill slime deposit. The isolate was identified by 16 S ribosomal RNA sequencing technique. Gene assembly and data analysis was performed using MicroSeq data analysis and identification software; the isolate was identified as a Flectobacillus species. Modified Basal Salts Buffer was inoculated with a suspension of the bacterial isolate to yield a final concentration of 1×10^5 cells per ml. Using a delay between additions, Busan 1210 (BBAB) was added 20 minutes prior to the addition of monochloramine (MCA). After a 3 hours exposure time, the treatments were sub-cultured onto Nutrient and Plate Count Agar (PCA) and incubated at 28° C. for 48 hours. The plates were examined for colony forming units (CFU) and compared to untreated control. [formula] Synergy is expressed as a Fractional inhibitory Concentration Index (FIC), calculated as follows: FIC=[A]/[a]+[B]/[b] where, [A] and [B]=MIC of the compounds A and B when in combination [a] and [b]=MIC of the compounds A and B when alone

[2] = system: Enterobacter aerogenes (ATCC 13048); test: Evaluation of bactericidal activity (MIC, Bactometer impedance) with checkerboard synergy evaluation; format: cell-based; settings: value <1 denotes synergistic activity
Method: A. Evaluation of Bactericidal Activity. This test method provides a technique for testing compounds for their effectiveness to control bacterial growth. MIC values represent the Minimum Inhibitory Concentration, defined as the lowest level of compound required to produce a 90% kill of a given organism.
Cell suspension from an 18 to 24 hour bacterial culture of Staphylococcus aureus (ATCC 6538) or Bacillus subtilis (ATCC 6633) or Enterobacter aerogenes (ATCC 13048) to attain a desired cell concentration. Using a McFarland nephelometer barium sulfate standard or some other suitable method, adjust the concentration of the bacterial suspension so that a final concentration of between 1×10^4 and 1×10^5 cells per ml is achieved when 100 μl of the inoculum is added to 5 ml of basal salts substrate. […]
• Bacterial growth in the tubes is measured by monitoring impedance levels on the Bactometer. • Dispense 1 ml aliquots of Modified WILKINS Chalgren Broth (Bactometer Media) into Bactometer wells; add 25 μl of treatment from the incubated tubes. […]
Synergy was measured by checkerboards dilutions (Yan and Hancock, 2001), in which one compound is diluted along the rows of test tubes and the other is diluted along the columns. […] The result is expressed as the Fractional Inhibitory Concentration Index (FIC), calculated as follows: […]

[3] = system: white water (ww) sample with a sulfite content of 12.8 ppm; test: Synergism in the presence of sulfite: ATP measurement in white water, percent inhibition; format: cell-based; settings: 10 min; BBAB 80 ppm active alone; ATP at 10 min; sulfite 12.8 ppm
Method: Synergism in the presence of sulfite. The effectiveness of the actives and the blend were evaluated in a white water (ww) sample with a sulfite content of 12.8 ppm. ATP measurements were performed in duplicate and percent inhibition calculated as a measure of antimicrobial efficacy. The raw data was converted to percent inhibition with use of the following formulation: % Inhibition=[(u−t)/u]×100 where: u=ATP value of untreated ww at time10 min t=ATP value of treated ww at time10 min.

[4] = cited from earlier work

## NCl [MCA, monochloramine]
[1]; FIC=[A]/[a]+[B]/[b]
  FIC: 1.0
[1]; alone, 3 hours exposure, sub-cultured 28° C. for 48 hours
  MIC of compound when alone ([a] / [b]): 10.0(a)

## O=C(CBr)OC/C=C\COC(=O)CBr [BBAB, 1,4-bis(bromoacetoxy)-2-butene]
[2]
  [A]/MICA + [B]/MICB (FIC index): 1.0
[3]
  inhibition at 80 ppm: 22.8%
[4]; alcohols and glycols as listed
  solubility in isopropenol, n-butenol, glycerol, ethylene glycol, propylene glycol, and diethylene glycol: soluble
[4]; dimethylformamide, ethylene glycol monomethylether
  solubility in dimethylformamide and ethylene glycol monomethylether: soluble
[4]; water
  solubility in water: extremely low; also recorded: water insoluble
